What was measured:
AMPA receptor = assay: AMPA binding assay ([3H]-AMPA); conditions: [3H]-AMPA binding; unit inferred
Description: The AMPA binding assay may also be performed to provide an activity profile for the compounds of the present invention.

cortical neuronal cells = assay: glutamate-induced lactate dehydrogenase (LDH) efflux assay; format: cell-based; conditions: glutamate exposure 5 minutes; LDH released into the culture medium 1 day after exposure
Procedure: The glutamate-induced lactate dehydrogenase (LDH) efflux assay is also used to measure the activity of the compounds of the present invention. Procedures for evaluating neurotoxicity in cortical neuronal cells by measuring efflux of LDH are carried out similarly as described by J. Y. Koh and D. W. Choi, J. Neurosci. Methods 1987;20:83-90. Only mature ([…] in vitro) cortical cultures were selected for study. Cells were exposed for 5 minutes to a glutamate exposure solution. Compounds tested were added to the glutamate exposure medium. In all experiments the glutamate exposure was removed and fresh buffer was added. Overall neuronal injury was quantitatively assessed by measurement of LDH released into the culture medium 1 day after glutamate exposure (see J. G. Klingman, D. M. Hartley, D. W. Choi, J. Neurosci. Methods 1989;31:47-51) using a 96-well plate reader.

[1] = target: T1, strychnine insensitive glycine receptor which is located on the NMDA receptor complex (Rattus norvegicus, UniProt P35439); assay: glycine binding assay ([3H]-Gly); conditions: for IC50: [3H]-glycine binding; for inhibition at 10 µM: read-out: [3H]-Gly, % Inh. at 10 μM
T1 construct: from tissue
Procedure: Specifically, the compounds of the present invention have activity as antagonists at the strychnine insensitive glycine receptor which is located on the NMDA receptor complex. As such, the compounds of the present invention are NMDA receptor antagonists. Also, the compounds of the present invention have activity as AMPA and kainate receptor antagonists.
The glycine binding assay is performed essentially as described by W. Frost White, et al, Journal of Neurochemistry 1989;53(2):503-12.

Structure (SMILES) | IC50 (AMPA receptor) | IC50 (cortical neuronal cells) | IC50 [1] | inhibition at 10 µM [1]
O=C(O)/C=C/c1c(C(=O)O)[nH]c2cc(Cl)cc(Cl)c12 | 203 µM | 10.2 µM | 180 nM | –
O=C(CCc1c(C(=O)O)[nH]c2cc(Cl)cc(Cl)c12)NS(=O)(=O)c1ccccc1 | 113 µM | 7.8 µM | 68 nM | –
O=C(CCCc1c(C(=O)O)[nH]c2cc(Cl)cc(Cl)c12)NS(=O)(=O)c1ccccc1 | 108 µM | – | – | 89%
[N-]=[N+]=Nc1cccc(S(=O)(=O)NC(=O)CCc2c(C(=O)O)[nH]c3cc(Cl)cc(Cl)c23)c1 | 150 µM | 6 µM | 79 nM | –

Further lines, results first:

IC50 (AMPA receptor) | IC50 (cortical neuronal cells) | IC50 [1] | inhibition at 10 µM [1] | Structure (SMILES)
80 µM | 21.5 µM | 543 nM | – | CS(=O)(=O)NC(=O)CCc1c(C(=O)O)[nH]c2cc(Cl)cc(Cl)c12
122 µM | – | – | 87% | O=C(/C=C/c1c(C(=O)O)[nH]c2cc(Cl)cc(Cl)c12)NS(=O)(=O)c1ccccc1
213 µM | – | – | 84% | O=C(/C=C/c1c(C(=O)O)[nH]c2cc(Cl)cc(Cl)c12)NCc1ccccc1

— patent US5284862A, “Derivatives of 2-carboxyindoles having pharmaceutical activity” (Warner-Lambert Company, priority 1992, dated 1994)
